{"source": "patent US20240358692A1", "about": "“TREATMENT OF SCLERODERMA” (Aisa Pharma, Inc., priority 2023, published 2024)", "key": {"[1]": {"tested_on": "participants with SSc-RP", "experiment": "SHAQ - Visual Analog Scale - Intestinal Problems", "format": "in vivo, human", "design": "Visual Analog Scale-Intestinal Problems, In Clinic Visit (Day 12), Mean / Visual Analog Scale-Intestinal Problems, In Clinic Visit (Day 12), Median / Visual Analog Scale-Intestinal Problems, Change from Baseline, Mean / Visual Analog Scale-Intestinal Problems, Change from Baseline, Median / SHAQ Visual Analogue Scale - Intestinal Problems, In-Clinic Visit (Day 12), Median: scale not given here", "from_the_text": "The standard, validated, patient reported outcome measures tool for SSc patients, the Scleroderma Health Assessment Questionnaire (SHAQ), will be used to assess the participant qualify of life. Details are attached in the Appendix. The participant quality of life will be scored, and a disability index calculated for each questionnaire completed by the patient at Screening and each in-clinic visit. The absolute change in participant quality of life from baseline to the end of each dosing period will be calculated similar to frequency data as before.\nThe standard, validated, patient reported outcome measures tool for SSc patients, the SHAQ, was collected at the time points specified in the study schedules (FIG. 2 and FIGS. 4A and 4B) to assess the participant's quality of life. The SHAQ included a Raynaud's VAS that will also be reported separately."}, "[2]": {"tested_on": "participants with SSc-RP", "format": "in vivo", "conditions": "tadalafil monotherapy group", "from_the_text": "Treatment-emergent AEs (TEAEs) are defined as AEs that occur or worsen after the dose of study drug. If the timing of the start of an AE could not be determined unambiguously from the start or end dates provided, it will be assumed to be a TEAE. An AE is considered related if the relationship to either of the study drug has been indicated as possibly or probably or definite related by the investigator. An AE leading to study withdrawal is defined as an AE that cause a subject early terminated from the study. AEs will be identified as emerging in the following parts: • TEAEs for Part A will be those that started during Part A (i.e., from the first dose in Part A to end of follow up of Part A) • TEAEs for Part B will be those that started during Part B (i.e., from the first dose in Part B to end of follow-up of Part B).\nIn this study, AEs and SAEs were reported for all participants from the time of randomization until the completion of the Follow-up/EOS visit. Adverse events that were ongoing at the EOS visit were marked as Not Recovered/Not resolved on the AE eCRF page (see Section 9.4.4). The Investigator did full AE review during in-clinic visit. All spontaneously volunteered and enquired for, as well as observed AEs, were recorded in the participant's medical records and the eCRF.\nSeverity of AEs were graded by the Investigator as one of: • Mild (Grade 1): A type of AE that is usually transient and may require only minimal treatment or therapeutic intervention."}, "[3]": {"conditions": "Modified ITT Population-Part A, Day 12, dose cilnidipine 10 mg, tadalafil 5 mg, alone or combined as labelled"}, "[4]": {"conditions": "Tadalafil 5 mg, SSc patients, PP, Part A"}}}
{"molecule": "CN1CC(=O)N2[C@H](c3ccc4c(c3)OCO4)c3[nH]c4ccccc4c3C[C@@H]2C1=O", "note": "[Tadalafil]", "values": [{"measurement": "Visual Analog Scale-Intestinal Problems, Change from Baseline, Median", "setting": "[1]; [3]", "result": 0.000}, {"measurement": "Visual Analog Scale-Intestinal Problems, Percent Change from Baseline, Median", "setting": "[1]; [3]", "result": 0.00, "unit": "%"}, {"measurement": "SHAQ VAS Intestinal Problems, Change from Baseline, Max", "setting": "[1]; [4]", "result": 1.80}, {"measurement": "SHAQ VAS Intestinal Problems, Change from Baseline, Median", "setting": "[1]; [4]", "result": 0.000}, {"measurement": "SHAQ VAS Intestinal Problems, Change from Baseline, Min", "setting": "[1]; [4]", "result": "−2.30,"}, {"measurement": "SHAQ VAS Intestinal Problems, Change from Baseline, Q1", "setting": "[1]; [4]", "result": "−1.150,"}, {"measurement": "SHAQ VAS Intestinal Problems, Change from Baseline, Q3", "setting": "[1]; [4]", "result": 0.900}, {"measurement": "SHAQ VAS Intestinal Problems, Day 12, Max", "setting": "[1]; [4]", "result": 9.20}, {"measurement": "SHAQ VAS Intestinal Problems, Day 12, Mean", "setting": "[1]; [4]", "result": 3.025}, {"measurement": "SHAQ VAS Intestinal Problems, Day 12, Median", "setting": "[1]; [4]", "result": 1.450}, {"measurement": "SHAQ VAS Intestinal Problems, Day 12, Min", "setting": "[1]; [4]", "result": "0.00,"}, {"measurement": "SHAQ VAS Intestinal Problems, Day 12, Q1", "setting": "[1]; [4]", "result": "0.050,"}, {"measurement": "SHAQ VAS Intestinal Problems, Day 12, Q3", "setting": "[1]; [4]", "result": 6.000}, {"measurement": "SHAQ VAS Intestinal Problems, Percent Change from Baseline, Max", "setting": "[1]; [4]", "result": 24.3}, {"measurement": "SHAQ VAS Intestinal Problems, Percent Change from Baseline, Mean", "setting": "[1]; [4]", "result": "−6.92"}, {"measurement": "SHAQ VAS Intestinal Problems, Percent Change from Baseline, Median", "setting": "[1]; [4]", "result": 0.00}, {"measurement": "SHAQ VAS Intestinal Problems, Percent Change from Baseline, Min", "setting": "[1]; [4]", "result": "−45.1,"}, {"measurement": "SHAQ VAS Intestinal Problems, Percent Change from Baseline, Q1", "setting": "[1]; [4]", "result": "−45.10,"}, {"measurement": "SHAQ VAS Intestinal Problems, Percent Change from Baseline, Q3", "setting": "[1]; [4]", "result": 24.32}, {"measurement": "Worst AE (group)", "setting": "[2]", "result": "Worst AE in tadalafil"}]}
